The values below come from PubChem BioAssay AID1645864 (Buhrlage Lab, Dana-Farber Cancer Institute and Novartis …, 2021).

Activity calls are given as the source filed them.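 How the source made its calls: active means maximal inhibition of USP17 at or above 30% in the confirmation dose-response, a value not among the printed readouts; inactive means the rest.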

Ubiquitin carboxyl-terminal hydrolase 17-like protein 5 (Homo sapiens), sequence (A8MUK1 whole entry, looked up): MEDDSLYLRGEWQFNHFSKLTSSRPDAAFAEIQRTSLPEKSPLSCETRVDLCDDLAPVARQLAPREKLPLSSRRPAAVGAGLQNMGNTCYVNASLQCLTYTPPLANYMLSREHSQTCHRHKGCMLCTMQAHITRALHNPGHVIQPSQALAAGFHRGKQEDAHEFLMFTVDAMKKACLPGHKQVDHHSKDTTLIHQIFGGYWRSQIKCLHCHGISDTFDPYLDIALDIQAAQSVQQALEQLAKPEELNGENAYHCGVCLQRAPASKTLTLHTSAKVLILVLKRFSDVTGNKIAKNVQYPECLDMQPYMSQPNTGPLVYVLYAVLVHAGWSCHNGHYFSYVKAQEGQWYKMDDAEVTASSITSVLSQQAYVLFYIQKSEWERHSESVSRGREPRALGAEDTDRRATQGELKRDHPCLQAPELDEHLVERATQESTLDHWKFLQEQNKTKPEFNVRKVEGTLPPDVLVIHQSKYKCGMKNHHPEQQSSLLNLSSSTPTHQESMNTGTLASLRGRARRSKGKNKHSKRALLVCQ

The experiment concerns the target Ubiquitin carboxyl-terminal hydrolase 17-like protein 5 (Homo sapiens) (UniProt A8MUK1). In words: ubiquitin-specific protease 17 DUB inhibitors, concentration-effect assay, cell-free, verification of initial screening actives (AID 1645864). Particulars: purified USP17, ubiquitin-rhodamine cleavage fluorescence, 3 h.
As to `O=C(NCc1cccnc1)c1cnn2c(C(F)(F)F)cc(-c3ccccc3)nc12`, the IC50 was > 50 µM (inactive).
The value for `O=C(Nc1ccc2c(c1)OCCO2)C1CCC(Cn2cnc3ccccc3c2=O)CC1` (stereo unspecified) was > 50 µM (inactive); that for `Cc1cccc(NC(=O)Cn2cnc(-c3noc(-c4ccccc4)n3)c2)c1C` was 1.35 µM.
On to `CCn1cc(NC(=O)CN2CCC3(CC=CCOC3)CC2)c(C)n1`, for which the IC50 is > 50 µM (inactive).
The value for `Cc1nnc(Sc2cc(C(=O)NCCN3CCCC3)c3ccccc3n2)s1` was 30 µM.
In the case of `O=C(Cc1ccccc1F)N1CCC2(CC1)CC1(CO2)Nc2ccccc2-n2cccc21` (stereo unspecified), the IC50 is > 50 µM (inactive).
The value for `O=C(Nc1cccc(Cl)c1)N1CCC(c2cc(-c3ccco3)n[nH]2)CC1` was 3.52 µM; that for `COc1cccc(NC(=O)Cc2sc(Nc3cc(C)cc(C)c3)nc2O)c1` was 17.8 µM; that for `CCOc1ccc2cc3c(nc2c1)OC(=O)N(Cc1ccc(C)o1)C3` was 2.44 µM.
With `N#C/C(=C/c1sc(N2CCOCC2)nc1-c1ccccc1)c1ccccn1`, the IC50 is > 50 µM (inactive).
In the case of `COc1ccc(NC(=O)CSc2nnc(Cc3cccc4ccccc34)n2C)cc1`, the IC50 was > 50 µM (inactive).
`CCOc1ccc2c(c1)c(=O)c(C(=O)c1ccc(C)cc1)cn2CC(=O)Nc1ccc(OC)c(OC)c1`: the IC50 is 0.464 µM.
Turning to `CCCCN1CC(C(=O)Nc2ccc(C(=O)Nc3ccc(Cl)cc3)cc2)CC1=O` (stereo unspecified), the IC50 was 16.5 µM.
With `O=C(Nc1ccccc1)c1nc2c(s1)CCN(C(=O)c1ccccc1)CC2`, the IC50 was > 50 µM (inactive).
`CCOc1ccc(CCNC(=O)c2ccc3c(c2)N(CC)C(=O)c2ccccc2S3)cc1OCC`: the IC50 is > 50 µM (inactive).
In the case of `Cc1nc2cc(C(=O)NCCC3=CCCCC3)ccc2n1-c1cccc(F)c1`, the IC50 was > 50 µM (inactive).
`COc1ccc(-c2cc3c(=O)n(CC(=O)NCCCN4CCCC4)ncn3n2)cc1`: the IC50 was 29.2 µM.
The value for `c1coc(CNc2nc(Nc3cccc4ccccc34)nc3ccccc23)c1` was > 50 µM (inactive); that for `COc1ccc(NC(=O)Nc2cccc(-c3nnc(-c4ccccc4)o3)c2)cc1OC` was 10.9 µM; that for `Cc1cc(C)c2sc(N(CCCn3ccnc3)C(=O)Cc3ccccc3)nc2c1` was 21.7 µM.
The value for `COc1ccc(OCC(=O)Nc2ccc(C)c(OCc3cc(=O)n4ccccc4n3)c2)cc1` was 4.29 µM; that for `COc1cccc(NC(=O)Cn2c(COc3ccccc3)nc3ccccc32)c1` was 4.83 µM.
The value for `Cc1cc(C)cc(N(CCC(=O)Nc2ccc(N3CCOCC3)cc2)S(=O)(=O)c2ccc(Cl)cc2)c1` was 18.2 µM.
For `CCc1ccc(NC(=O)Cc2nnc(-c3ccc4ncccc4c3)o2)cc1`, the IC50 was 35.5 µM.
Regarding `O=C(CN1C(=O)COc2ccc(Cl)cc21)Nc1cccc2ncccc12`, the IC50 was > 50 µM (inactive).
The value for `O=C(Nc1nnc2n1CCCS2)c1cc2ccccc2o1` was > 50 µM (inactive); that for `Cc1cccc(N2C(=O)/C(=C\c3ccc4c(c3)OCCO4)c3ccccc3C2=O)c1` was 23.6 µM; that for `Cc1ccc(C(=O)Nc2nc3n(n2)C(c2ccccc2)CC(=O)N3)cc1` (stereo unspecified) was 27.9 µM.
As to `O=S1(=O)CCN(Cc2cccnc2)c2c(F)nc(N3CCOCC3)c(F)c21`, the IC50 is > 50 µM (inactive).
For the molecule `Cc1nc(SCC(=O)Nc2cc(Cl)ccc2C)c2oc3ccccc3c2n1`, the IC50 is 1.67 µM.
Turning to `O=C(OCCCN1C(=O)c2cccc3c(N4CCCCC4)ccc(c23)C1=O)c1ccccn1`, the IC50 is > 50 µM (inactive).
Consider `CCN(C(=O)c1cc2c(Cl)nc3ccccc3c2s1)c1ccccc1F`, for which the IC50 was 16.1 µM.
The value for `O=C(Cn1nc2c3c4c(sc3ncn2c1=O)CCCCC4)Nc1ccc(Cl)cc1F` was 2.08 µM.
The value for `COc1ccc(C(=O)Nc2nc3n(n2)C(c2ccccc2)CC(=O)N3)cc1` (stereo unspecified) was 10.2 µM.
Consider `COCCn1c(=O)[nH]c2cc(C(=O)NCCNc3ccc([N+](=O)[O-])cc3C#N)ccc2c1=O`, for which the IC50 is 3.57 µM.
The value for `Cc1cc2c(cc1C)NC(CC(=O)Nc1ccc(O)cc1)C(=O)N2` (stereo unspecified) was 24.1 µM; that for `Cc1ccc(C)c(-n2c(N)c(C(=O)NCCc3ccccc3)c3nc4ccccc4nc32)c1` was > 50 µM (inactive); that for `Cc1ccc(CNC(=O)CCCn2c(=O)c3sccc3n(CC(=O)OCc3ccccc3)c2=O)cc1` was 2.5 µM.
The value for `COc1ccc(OC)c(NC(=O)CS(=O)(=O)c2cn(CC(=O)N3CCC(C)CC3)c3ccccc23)c1` was 27.2 µM.
The value for `COc1cc(O)c2c(O)c3c(cc2c1)CC(C)OC3=O` (stereo unspecified) was 6.24 µM.
Regarding `Cc1ccc2c(c1)-c1c(c(C(=O)N3CCN(c4ccccc4)CC3)nn1C)CS2`, the IC50 is > 50 µM (inactive).
Take `O=C(c1ccco1)N1CCC2(CC1)CC1(CO2)Nc2ccccc2-n2cccc21` (stereo unspecified): the IC50 is 20.6 µM.
The value for `CCCCNc1nc2c(-c3ccccc3)nnn2c2ccccc12` was 3.08 µM.
As to `CCCNC(=O)c1ccn(-c2ccc3ccc(-c4cnn(C)c4)cn23)n1`, the IC50 was > 50 µM (inactive).
The value for `COc1cc(OC)cc(-n2c(=O)c3sccc3n(CC(=O)c3ccc(F)cc3)c2=O)c1` was 26.1 µM; that for `O=C(Cc1ccc(Cl)c(Cl)c1)OCC(=O)c1c[nH]c2ccccc12` was > 50 µM (inactive).
On to `Cc1cc(O)c(=O)cc2c1C[C@H]1CC(C)(C)/C=C/C[C@@]3(C)Oc4cc(=O)c(O)cc(C)c4C[C@@H]3C[C@H](O)[C@]1(C)O2`, for which the IC50 was > 50 µM (inactive).
The value for `Cc1ccc(/C=C/C(=O)Nc2ccc3c(c2)OCCO3)cc1` was > 50 µM (inactive); that for `Cc1cc(O)c2c3c(c(O)cc2c1)C(=O)c1c(O)cccc1C3=O` was 0.407 µM; that for `O=C1c2ccccc2NC2(C(=O)Nc3ccc(Br)cc32)N1c1ccccc1` (stereo unspecified) was > 50 µM (inactive).
`Cc1noc(-c2cc(=O)n(CC(=O)NCc3ccccc3F)c3ccccc23)n1`: the IC50 was 4.88 µM.
The value for `CCC1(C)Cc2c(sc3nc(SCC(=O)Nc4ccc(C(C)=O)cc4)nc(N)c23)CO1` (stereo unspecified) was 34.9 µM; that for `COc1ccc(COC(=O)C2=C(C)NC(=O)CC2c2cccc([N+](=O)[O-])c2)cc1` (stereo unspecified) was > 50 µM (inactive).
The value for `O=C(CN1C(=O)NC2(CCCCC2)C1=O)Nc1ccc([N+](=O)[O-])cc1` was 32.8 µM.
The value for `O=C(CSc1nc2cc(S(=O)(=O)Nc3ccccc3Cl)ccc2o1)Nc1ccc(N2CCOCC2)cc1` was 48 µM; that for `Cc1nc(Nc2c3ccccc3nc3ccccc23)sc1C` was > 50 µM (inactive); that for `Cc1ccc([N+](=O)[O-])cc1S(=O)(=O)Nc1cc2sc(=O)oc2c2ccccc12` was 3.44 µM.
With `Cc1nnc(NC(=O)C2CCN(c3ccc(S(N)(=O)=O)cc3[N+](=O)[O-])CC2)o1`, the IC50 was 29.5 µM.
The value for `Cc1cccc(NC(=O)Cn2c(-c3cnccn3)nc(C)c(C)c2=O)c1C` was > 50 µM (inactive).
Take `COc1cccc2c1OCC(NS(=O)(=O)c1cc(C)ccc1C)C2` (stereo unspecified): the IC50 is > 50 µM (inactive).
The value for `CN(C)CCc1cc2c(c3c1ccc1ccccc13)OCO2` was > 50 µM (inactive); that for `CCOc1ccc(-n2c(C)cc(/C=C(\C#N)c3nc4ccccc4[nH]3)c2C)cc1` was > 50 µM (inactive); that for `CCc1nc2c(NC(=O)Nc3cccc(C(=O)OC)c3)cccn2n1` was > 50 µM (inactive).
`CSc1nc(Cc2ccc(Cl)cc2)nc2ccccc12`: the IC50 was > 50 µM (inactive).
With `O=C(NCCc1ccccc1)c1nnn(Cc2cccc(Cl)c2)c1-n1cccc1`, the IC50 is > 50 µM (inactive).
For the molecule `O=C(CNc1ccc(F)c(Cl)c1)Nc1ccc2c(c1)OCCO2`, the IC50 is > 50 µM (inactive).
Turning to `COc1ccc(Nc2ncc(C(=O)Nc3ccc(Oc4ccccc4)cc3)c3ccccc23)cc1`, the IC50 is > 50 µM (inactive).
The value for `CCCc1nc2sc3c(NC4CCCCC4)ncnc3c2c2c1CCC2` was > 50 µM (inactive).
Consider `Cc1ccc(-n2nnc(C(=O)NC3CCCCC3)c2N)cc1`, for which the IC50 is 22.1 µM.
The value for `CC(C)Cc1nc2sc3c(NCCN4CCOCC4)ncnc3c2c2c1CCC2` was > 50 µM (inactive); that for `CC1OC(CC(=O)O)CC23OC12C(=O)c1c(O)cccc1C3=O` (stereo unspecified) was 1.33 µM; that for `Cn1nc(-c2nc(-c3ccccc3)no2)c2c1CCN(C(=O)C1CC1)C2` was > 50 µM (inactive).
As for `Cc1ccc(C)c(Cn2nnc3c(=O)[nH]c(C4CCN(S(=O)(=O)c5ccc(S(=O)(=O)NC6CC6)cc5)CC4)nc32)c1`, the IC50 was 24.4 µM.
The value for `Nc1c(-c2ccc(Cl)cc2)cnc2cc(-c3ccc(Cl)c(Cl)c3)nn12` was 3.37 µM; that for `CCc1ccc(-c2nc(SCC(=O)Nc3ccc4[nH]c(=O)[nH]c4c3)n[nH]2)cc1` was 27.4 µM; that for `O=c1ccc(-c2noc(Cc3c(F)cccc3Cl)n2)c[nH]1` was > 50 µM (inactive).
As to `CCCC[C@@H](C)/C=C(C)/C=C(\C)C(=O)NC1=C[C@](O)(/C=C/C=C/C=C/C(=O)NC2=C(O)CCC2=O)[C@@H]2O[C@@H]2C1=O`, the IC50 is 3.1 µM.
Consider `Cc1ccccc1Cn1ccc2ccn(Cc3cccnc3)c2c1=O`, for which the IC50 is > 50 µM (inactive).
As for `COc1cc(C2SCC(=O)Nc3c2c(-c2ccccc2)nn3-c2ccccc2)cc(OC)c1OC` (stereo unspecified), the IC50 was > 50 µM (inactive).
Regarding `Cc1cc(NC(=O)c2nnn(-c3ccccc3Cl)c2C)no1`, the IC50 was > 50 µM (inactive).
As for `COc1ccccc1/C=C/C(=O)Nc1nc2n(n1)C(c1ccc(Cl)cc1)CC(=O)N2` (stereo unspecified), the IC50 is > 50 µM (inactive).
The value for `COc1ccc(OC)c(NC(=O)C2=C(C)Nc3ncnn3C2c2ccccc2OCc2ccc(C)cc2)c1` (stereo unspecified) was 12.2 µM.
In the case of `Cc1ccccc1C(=O)OCCN1C(=O)c2cccc3c(N4CCCCC4)ccc(c23)C1=O`, the IC50 is > 50 µM (inactive).
Turning to `CCC(CC)n1[nH]c(=O)c2c1NC(=O)CSC2c1ccc2c(c1)OCO2` (stereo unspecified), the IC50 is 18.5 µM.
The value for `CCc1cc2cc3c(cc2nc1SCC(=O)Nc1cccc(C(C)=O)c1)OCO3` was 2.29 µM.
The value for `CCCc1nc2c(sc3nc4c(cc32)COC(C)(C)C4)c(=O)n1CC(=O)Nc1ccccc1C` was 32.2 µM.

The IC50 is the concentration that gives 50% inhibition.
